Data from ChEMBL document CHEMBL2406976, “Discovery of Inhibitors of Burkholderia pseudomallei Methionine Aminopeptidase with Antibacterial Activity” (ACS Med Chem Lett, 2013).
In brackets after ≈: the same amount, converted by molar mass. Activity calls are given as the source filed them. The rule behind the calls is not given here.

Experiments:
[1] = test system: Burkholderia thailandensis; assay: Antibacterial activity against Burkholderia thailandensis E264 assessed as bacterial growth inhibition at 1 mM after 24 hrs by two-fold dilution method relative to DMSO-treated control; type: functional; details: for inhibition of growth at 1000 µM: E264, 24 h, read-out: GI
[2] = test system: Burkholderia pseudomallei; assay: Antibacterial activity against Burkholderia pseudomallei 1026b assessed as bacterial growth inhibition after 24 hrs by two-fold dilution method; type: functional, organism-based
[3] = test system: Burkholderia pseudomallei; assay: Antibacterial activity against Burkholderia pseudomallei Bp340 assessed as bacterial growth inhibition at 31.25 uM after 24 hrs by two-fold dilution method; type: functional, organism-based
[4] = test system: Burkholderia thailandensis; assay: Bactericidal activity against Burkholderia thailandensis E264 assessed as cell death after 24 hrs by two-fold dilution method; type: functional; details: E264, 24 h
[5] = test system: Burkholderia thailandensis; assay: Antibacterial activity against Burkholderia thailandensis E264 assessed as bacterial growth inhibition after 24 hrs by two-fold dilution method; type: functional; details: E264, 24 h
[6] = target: Methionine aminopeptidase 1 (Homo sapiens, UniProt P53582); assay: Inhibition of human methionine aminopeptidase 1
[7] = Inhibition of Burkholderia pseudomallei recombinant methionine aminopeptidase 1 using H-Met-Gly-Pro-7-amino-4-methylcoumarin hydrochloride as substrate measured for 10 mins by fluorescence assay in presence of human recombinant DPP4
[8] = test system: Burkholderia thailandensis; assay: Antibacterial activity against Burkholderia thailandensis E264 assessed as bacterial growth inhibition at 0.5 mM after 24 hrs by two-fold dilution method relative to control; type: functional
[9] = test system: Burkholderia thailandensis; assay: Bactericidal activity against Burkholderia thailandensis E264 assessed as cell death at 1 mM after 24 hrs by two-fold dilution method; type: functional
[10] = target: Methionine aminopeptidase 2 (Homo sapiens, UniProt P50579); assay: Inhibition of human methionine aminopeptidase 2
Sequence of Methionine aminopeptidase 2 (P50579 whole entry): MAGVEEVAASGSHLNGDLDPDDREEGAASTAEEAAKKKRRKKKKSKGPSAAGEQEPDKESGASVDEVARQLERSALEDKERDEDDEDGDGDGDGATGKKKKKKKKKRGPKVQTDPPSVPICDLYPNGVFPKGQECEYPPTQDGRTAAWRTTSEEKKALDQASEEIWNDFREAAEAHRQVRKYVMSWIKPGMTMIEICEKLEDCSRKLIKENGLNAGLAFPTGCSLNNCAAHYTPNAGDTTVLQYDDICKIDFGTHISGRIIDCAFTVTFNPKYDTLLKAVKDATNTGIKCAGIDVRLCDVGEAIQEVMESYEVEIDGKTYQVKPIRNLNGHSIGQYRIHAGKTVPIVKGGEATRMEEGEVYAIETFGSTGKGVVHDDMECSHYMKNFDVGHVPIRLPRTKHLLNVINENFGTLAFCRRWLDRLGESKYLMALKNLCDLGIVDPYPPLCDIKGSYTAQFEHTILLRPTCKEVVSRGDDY

[11] = test system: Burkholderia pseudomallei; assay: Antibacterial activity against Burkholderia pseudomallei assessed as bacterial growth inhibition; type: functional

| SMILES | inhibition of growth at 1000 µM [1] [%] | IC50 [7] [µM] | also measured |
| --- | --- | --- | --- |
| CN1CCN(Cc2cc(Cl)c3cccnc3c2O)CC1 | > 50 |  |  |
| O=[N+]([O-])c1ccc(O)c2ncccc12 [NITROXOLINE] |  |  | growth inhibition (GI) [2]: Active; growth inhibition (GI) [3]: Active; MBC [4]: 250 µM (≈ 47.5 µg/mL); growth inhibition (GI) [1]: Active; MIC [5]: 31 µM (≈ 5.89 µg/mL) |
| Oc1cccc2cccnc12 [OXYQUINOLINE] | > 50 |  | IC50 [6]: > 15 µM |
| Nc1nnc(SCc2ccc(Cl)cc2Cl)[nH]1 | ≤ 26 | 1 |  |
| NC[C@H]1O[C@H](O[C@H]2[C@H](O)[C@@H](O[C@H]3O[C@H](CO)[C@@H](O)[C@H](N)[C@H]3O)[C@H](N)C[C@@H]2N)[C@H](O)[C@@H](O)[C@@H]1O |  |  | inhibition [8]: Active |
| Nc1nnc(SCc2ccc(F)cc2)[nH]1 | ≤ 26 | 7 |  |
| Oc1c(CN2CCOCC2)cc(Cl)c2cccnc12 | > 50 |  |  |
| CN1CCN(Cc2cc([N+](=O)[O-])c3cccnc3c2O)CC1 |  | 0.07 | growth inhibition (GI) [9]: inactive; growth inhibition (GI) [1]: Active; MIC [5]: 500 µM (≈ 151 µg/mL) |
| Oc1c(CN2CCSCC2)cc(Cl)c2cccnc12 | > 50 |  |  |
| Oc1c(CN2CCCCC2)cc(Cl)c2cccnc12 | > 50 |  | IC50 [6]: > 50 µM |
| O=[N+]([O-])c1cc(CN2CCSCC2)c(O)c2ncccc12 |  | > 250 |  |
| Oc1ccc(Cl)c2cccnc12 [CLOXYQUIN] | > 50 |  |  |
| CC(C)c1ccc(CSc2nnc(N)[nH]2)cc1 | ≤ 26 | > 250 |  |
| Cc1ccc(CSc2nnc(N)[nH]2)cc1 | ≤ 26 | 3.1 |  |
| O=S(=O)(O)c1ccc(O)c2ncccc12 | 9 |  | IC50 [10]: > 15 µM |
| O=[N+]([O-])c1cc(CN2CCCC2)c(O)c2ncccc12 |  | 0.03 | growth inhibition (GI) [1]: Active |
| Nc1nnc(SCc2ccc(F)c(F)c2)[nH]1 | ≤ 26 | > 250 |  |
| CC(C)(O/N=C(\C(=O)N[C@@H]1C(=O)N2C(C(=O)[O-])=C(C[n+]3ccccc3)CS[C@H]12)c1csc(N)n1)C(=O)O [CEFTAZIDIME] |  |  | MIC [11]: 1 µg/mL (≈ 1.83 µM) |
| CN(C)Cc1cc([N+](=O)[O-])c2cccnc2c1O |  | 0.04 | growth inhibition (GI) [1]: Active |
| O=[N+]([O-])c1cc(CN2CCOCC2)c(O)c2ncccc12 |  | 60 |  |
| Cc1ccc2cccc(O)c2n1 [8-HYDROXY QUINALDINE] | > 50 |  | IC50 [10]: > 15 µM; IC50 [6]: > 15 µM |
| CC(C)(C)c1ccc(CSc2nnc(N)[nH]2)cc1 | ≤ 26 | > 250 |  |
